Reference: US20160367497A1, “METHODS AND COMPOSITIONS FOR TREATING NEUROPATHIES” (Washington University, priority 2007, published 2016)

What was measured:
[1] = tested on: neuro2A cells; assay: neurite outgrowth in Neuro2a cells; type: cell-based; conditions: 0.2% FCS; resveratrol 10 μM or AICAR 1 mM
Protocol: FIG. 11A-D illustrates the resveratrol and AICAR stimulation of neurite outgrowth in Neuro2a cells. Neuro2a cells were switched to serum-starvation medium (medium containing 0.2% FCS) and treated with DMSO (vehicle control), resveratrol (10 μM) or AICAR (1 mM). (A) Serum deprivation of Neuro2a cells results in growth of short neurites that increase in length over 72 h. (B) Resveratrol induced rapid neurite outgrowth resulting in elaborate neurite network formation by 48 h. (C) AICAR stimulated extensive neurite outgrowth similar to that observed with resveratrol. (D).
FIG. 12A-M illustrates the dependency of resveratrol-induced neurite outgrowth and mitochondrial biogenesis on AMPK. Neuro2a cells were infected with lentivirus expressing GFP only (FUGW, control), dominant negative AMPK (dnAMPK) or constitutively active AMPK (caAMPK). Three days later cells were shifted to serum-starvation medium containing DMSO (control) or resveratrol (10 μM). In addition, uninfected Neuro2a cells in serum-starvation medium were treated with resveratrol alone, the AMPK inhibitor Compound C (CC, Biomol International L.P. (Plymouth Meeting, Pa.)) (10 μM) alone or with resveratrol and CC together. Images of the cultures captured in bright field and green fluorescence were overlaid to visualize neurite outgrowth. […] Neurite length in cells treated with caAMPK+resveratrol is also shown (G). […] Values were normalized to the 18S transcript. Data shown is representative of two independent experiments.
(§1) Cell culture and Reagents. Neuro2 cells obtained from ATCC were grown in MEM with 1.5 g/L sodium bicarbonate, 0.1 mM nonessential amino acids, 0.1 mM sodium pyruvate, 2 mM L-glutamine with 10% FCS. For differentiation, cells were switched to serum-starvation medium (containing 0.2% FCS). For neurite outgrowth measurements, experiments were done in quadruplicate and 100 neurites per well were randomly measured using the Metamorph software. Dorsal root ganglia sensory and cortical neurons were established from E13.5 mouse embryos, maintained in neurobasal medium supplemented with B27 (and NGF for DRG neurons) and infected with lentiviruses as described (Araki et al., 2004, Science 305:1010-1013; Hawley et al., 2005, Cell Metab 2:21-23). Resveratrol was a gift from Sirtris Pharmaceuticals (Cambridge Mass.) and AICAR was obtained from Toronto Research (North York, Canada). Splitomycin and Compound C were purchased from Biomol (Plymouth Meeting, Pa.) and Calbiochem (San Diego, Calif.). Sirtinol and nicotinamide were purchased from Sigma (Saint Louis, Mo.)
(§2) Neuro2a cells are a widely used as in vitro model of neuronal differentiation. These cells cease to proliferate and begin to differentiate, as evidenced by neurite outgrowth, in response to serum starvation, retinoic acid, or growth factors like neurotrophins and GDNF family ligands. […] Neuro2a cells grown under serum starvation conditions (0.2% fetal calf serum) were treated with AICAR (1 mM) or resveratrol (10 μM).
Since resveratrol activated AMPK and altered the differentiation of Neuro2a cells, we next asked whether AMPK activity was required for resveratrol-induced neurite outgrowth. To address this issue, we infected Neuro2a cells with lentivirus expressing either GFP alone (FUGW-control) or dominant negative AMPK (dnAMPK). After 3 days growth to allow robust lentiviral transgene expression, the medium was replaced with serum starvation medium. […] Resveratrol-induced neurite outgrowth was reduced in the presence of the AMPK pharmacological inhibitor Compound C (CC 10 μM) further supporting the importance of AMPK activity for resveratrol-induced neurite outgrowth.

[2] = tested on: AMPK; assay: AMPK phosphorylation in Neuro2a cells (phospho-specific western blot); type: cell-based; conditions: resveratrol 10 μM or AICAR 1 mM; 2 h up to 72 h
Protocol: (§3) FIG. 10A-D illustrates resveratrol activation of AMP kinase in Neuro2a cells. Neuro2a cells were switched to serum-starvation medium (medium containing 0.2% FCS) and treated with DMSO (vehicle control), resveratrol (10 μM) or 5-aminoimidazole-4-carboxamide-1-β-D-ribofuranoside (AICAR) (1 mM). […] Very low levels of phosphorylated AMPK and ACC were detected in DMSO treated control cells at all time points tested. (C) Densitometric analysis of changes in phosphorylated AMPK and (D) phosphorylated ACC under different conditions is shown.
as §1
Plasmids and viruses. The dominant negative (dnAMPK) and constitutively active (caAMPK) plasmids were gifts from Russell Jones (University of Pennsylvania, Philadelphia Pa.), and pCXN-Cre was a gift of Inder Verma (Salk Institute, San Diego, Calif.). All constructs were subcloned into the lentiviral shuttle vector FCIV and verified by nucleotide sequence analysis. Viruses were prepared as previously described (Araki et al., 2004, Science 305:1010-1013). Protein and mRNA analysis. Immunoprecipitations and western blot analysis were performed by standard methods using antibodies directed against total AMPK, phosphorylated AMPK, total ACC or phosphorylated ACC that were obtained from Cell Signaling Technology (Beverley, Mass.). The phospho-AMPK antibody detects endogenous AMPK α1 and α2 when phosphorylated at threonine 172. The LKB1 antibody was purchased from Upstate (Lake Placid, N.Y.). Quantitative RT-PCR analysis was performed using Sybr-Green methodology on a model 7700 instrument (Applied Biosystems) as previously described (Araki et al., 2004, Science 305:1010-1013). Primer sequences were those used in previous studies (Motoshima, et al., 2006, J Physiol 574:63-71).
To explore the role of polyphenols, in particular, of resveratrol, we tested whether resveratrol altered the activity of AMPK in neuronal cells. Neuro2a neuroblastoma cells were treated with resveratrol (10 μM) and AMPK activation was examined using phospho-AMPK specific antibodies. […] To confirm that AMPK activation by resveratrol results in typical AMPK-mediated downstream responses, we monitored phosphorylation of ACC (acetyl Co-A carboxylase), a primary target of activated AMPK. […] To examine a potential mechanism of resveratrol-mediated AMPK activation, we measured cellular ATP levels as a decreased ATP:AMP ratio increases the phosphorylation of AMPK. ATP levels were monitored using a luciferase-based assay in neuro2A cells treated with resveratrol or Oligomycin, an inhibitor of mitochondrial oxidative phosphorylation and therefore ATP production. While the ATP concentration dropped from 5.874 μM in DMSO-treated cells (control) to 0.976 μM in Oligomycin treated cells within 2 hr, the ATP concentration in resveratrol-treated Neuro2a cells was not altered from control either at 2 hr (6.33 μM) or 24 hr (6.42 μM).

[3] = tested on: neuro2A cells; assay: Neuro2a cell proliferation, Ki67 immunocytochemistry; type: cell-based; conditions: 0.2% fetal calf serum; AICAR 1 mM or resveratrol 10 μM; 24 h after plating; DMSO controls 50%
Protocol: as §2

[4] = tested on: DRG neurons; assay: axonal injury of DRG neurons after hypoxia and reoxygenation; type: cell-based; conditions: preincubation 45 min or lentiviral expression; 0.1% O2 8 or 16 hrs, 20 hrs reoxygenation
Protocol: FIG. 18 illustrates that activation of AMPK protects axons while inhibition of AMPK function enhances axonal injury during oxygen deprivation.
To examine whether AMPK activation prior to hypoxic stress protects axons from injury, either constitutively active AMPK (CaAMPK) was expressed in DRG neurons, or neurons were preincubated with the AMPK activator AICAR for 45 min prior to hypoxia. […] Thus, treatments that increase AMPK activity (e.g. resveratrol, AICAR) can block the axonal damage and are neuroprotective.

[5] = tested on: acetyl Co-A carboxylase (ACC); assay: ACC phosphorylation in Neuro2a cells (phospho-specific western blot); type: cell-based; conditions: resveratrol 10 μM or AICAR 1 mM; all time points to 72 hr
Protocol: as §3
Plasmids and viruses. […] Quantitative RT-PCR analysis was performed using Sybr-Green methodology on a model 7700 instrument (Applied Biosystems) as previously described (Araki et al., 2004, Science 305:1010-1013). […]
To explore the role of polyphenols, in particular, of resveratrol, we tested whether resveratrol altered the activity of AMPK in neuronal cells. […] To confirm that AMPK activation by resveratrol results in typical AMPK-mediated downstream responses, we monitored phosphorylation of ACC (acetyl Co-A carboxylase), a primary target of activated AMPK. […] To examine a potential mechanism of resveratrol-mediated AMPK activation, we measured cellular ATP levels as a decreased ATP:AMP ratio increases the phosphorylation of AMPK. […]

[6] = tested on: neuro2A cells; assay: survival of Neuro2A cells in nutrient-deprived conditions; type: cell-based; conditions: regardless of the FCS concentration (10% or 0.2%)
Protocol: When Neuro2A cells are grown in culture in presence of 10% FCS, cells proliferate and ultimately die if cells are not passaged. If grown in the presence of 0.2% FCS, neuro2A cells differentiate and project neurites but ultimately die within one week.

[7] = tested on: Nrk2; assay: NAD synthesis enzyme mRNA in rotenone-treated DRG neurons (qRT-PCR); type: cell-based, rat; conditions: 0.1 μM and 1 μM, 24 hours
Protocol: FIG. 6A-B illustrates expression analysis of NAD biosynthetic enzymes in mammal showing (A) NAD biosynthesis enzyme mRNA levels after 1, 3, 7, and 14 days after nerve transection in rat DRG were determined by qRT-PCR in which the expression level was normalized to glyceraldehydes-3-phosphate dehydrogenase expression in each sample and is indicated relative to the expression level in non-axotomized DRG; (B) neurite degeneration introduced by incubation DRG in 1 or 0.1 μM rotenone for indicated time and NAD synthesis enzyme mRNA levels were determined by qRT-PCR as described in the text.
Real-time quantitative reverse transcription-PCR analysis. All the surgical procedures were performed according to National Institute of Health guidelines for care and use of laboratory animals at Washington University. […] Quantitative reverse transcription (RT)-PCR was performed by monitoring in real-time the increase in fluorescence of the SYBR-GREEN dye on a TaqMan 7700 Sequence Detection System (Applied Biosystems).
To investigate the expression of mammalian NAD biosynthetic enzymes in the nervous system, we performed quantitative RT-PCR using RNA from mouse brain, retina, spinal code, and DRG at age of E14, P0, P7, P14 and P21. […] We also analyzed expression of NAD synthetic enzymes during the axonal degeneration caused by neurotoxin in cultured rat DRG neuron. […]

| SMILES | neurite outgrowth compared to serum starvation alone [1] | AMPK phosphorylation [2] | proliferating cells (Ki67) [3] | axonal injury (axonal beading) after hypoxia [4] | ACC phosphorylation [5] | cell survival [6] | increase in expression of Nrk2 [7] |
| --- | --- | --- | --- | --- | --- | --- | --- |
| NC(=O)c1ncn([C@@H]2O[C@H](CO)[C@@H](O)[C@H]2O)c1N [AICAR, 5-aminoimidazole-4-carboxamide-1-β-D-ribofuranoside, reference compound] | increased neurite outgrowth | stimulated AMPK phosphorylation | 12.8% | significantly reduced axonal injury after hypoxia | promoted increased phosphorylation | resistant to death for a prolonged period of time |  |
| C=C(C)[C@H]1Cc2c(ccc3c2O[C@@H]2COc4cc(OC)c(OC)cc4[C@@H]2C3=O)O1 [rotenone] |  |  |  |  |  |  | more than 6 folds |
